Laboratory results taken from patent US20100183600A1, “RAF Inhibitors and Their Uses” (ARQULE, INC., priority 2008, published 2010).
Counter-ions that a name gives are not always drawn.

Experiments:
p-Erk (A375) = experiment: Cell-based phosphorylation assay with electroblotting readout; design: species or system human; details: Homo sapiens, A-375; A375 cells, 1 hr
Text: Compounds of the present invention have been screened for their ability to inhibit all isoforms, both wild-type and mutant of RAF kinases (A-RAF, B-RAF and C-RAF) in general, and the mutant B-RAF (V600E) in particular in human cancer cells. A375 is a human melanoma cell line that harbors the most common B-RAF mutation-V600E found in human cancers. The ability of compounds to inhibit RAF kinases in this assay is correlated with the reduction of MEK and ERK phosphorylation, and is therefore a direct indicator of potential in vivo therapeutic activity.
Materials: A375 cells from ATCC were maintained at 37° C., 5% CO2 in DMEM media supplemented with 10% fetal bovine serum, penicillin/streptomycin and fungizone. (Invitrogen)
Methods: Test compounds were dissolved and diluted 1:1000 in DMSO. A375 cells were seeded in six-well tissue culture plates at 5-8×10^5 per well and cultured at 37° C. for 24 h. Cells were incubated with compounds for one hour before being lysed in EPage™ loading buffer (Invitrogen). Lysates were electrophoresed on 8% EPage™ gels and transferred to polyvinylidene difluoride membranes. After incubations with primary and secondary antibodies, the immunostained proteins were detected and quantitated by an Odyssey infrared imager (LI-COR). Analysis was performed by non-linear regression to generate a dose response curve. The calculated IC50 value was the concentration of the test compound that causes a 50% decrease in phospho-MEK and phospho-ERK levels. The primary antibodies used were anti-MEK (Stressgen), anti-ERK (BD Biosciences), anti-phospho-ERK and anti-phospho-MEK (Cell Signaling). The secondary antibodies used were IRDYE800 anti-rabbit, IRDYE 800 anti-mouse (Rockland), AlexaFluor680 anti-mouse and AlexaFluoro680 anti-rabbit (Invitrogen).
A375 cells were treated with 0, 12, 37, 111, 333 and 1000 nM of indicated compounds for 1 hr. The levels of Phospho-ERK and total-ERK were accessed by immunoblotting.

mutant B-RAF = target: T1, mutant B-RAF (Homo sapiens, UniProt P15056, V600E); experiment: Measurement of RAF activity (MEK-1 phosphorylation); format: biochemical; details: 50 μM ATP, MEK-1 substrate; read-out: Mut-B-Raf IC50
T1 construct: purchased Upstate (Charlottesville, Va.)
T1 sequence (P15056 whole entry V600E): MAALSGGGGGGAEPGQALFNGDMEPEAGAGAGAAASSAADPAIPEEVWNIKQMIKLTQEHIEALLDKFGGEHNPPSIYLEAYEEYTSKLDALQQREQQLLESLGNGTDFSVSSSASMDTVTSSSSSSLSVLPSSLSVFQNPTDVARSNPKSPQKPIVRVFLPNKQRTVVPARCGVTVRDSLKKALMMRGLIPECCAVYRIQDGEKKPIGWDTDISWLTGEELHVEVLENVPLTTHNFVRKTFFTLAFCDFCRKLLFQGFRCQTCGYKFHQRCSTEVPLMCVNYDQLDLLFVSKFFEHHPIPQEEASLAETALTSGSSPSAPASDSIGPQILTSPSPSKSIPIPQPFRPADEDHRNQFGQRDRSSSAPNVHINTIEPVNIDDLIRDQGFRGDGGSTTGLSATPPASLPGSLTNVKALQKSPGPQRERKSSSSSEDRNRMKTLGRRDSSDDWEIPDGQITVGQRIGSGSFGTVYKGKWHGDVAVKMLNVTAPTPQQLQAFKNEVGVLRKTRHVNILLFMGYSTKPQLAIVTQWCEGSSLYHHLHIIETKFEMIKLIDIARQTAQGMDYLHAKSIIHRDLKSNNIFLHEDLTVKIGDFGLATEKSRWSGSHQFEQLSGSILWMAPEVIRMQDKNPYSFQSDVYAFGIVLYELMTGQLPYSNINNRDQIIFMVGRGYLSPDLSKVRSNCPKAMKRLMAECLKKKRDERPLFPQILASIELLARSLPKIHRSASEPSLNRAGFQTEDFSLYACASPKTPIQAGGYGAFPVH
Procedure: Materials: The RAF kinases and the anti-phospho MEK1/2 antibody were from Upstate (Charlottesville, Va.). The RAF substrate used was full length N-terminal GST-MEK-1, which was expressed in E. coli and purified in-house by HPLC. All proteins were aliquoted and stored at −80° C. Superblock™ in phosphate buffered saline (PBS) blocking reagent was form Pierce (cat. #37515). ATP was from Roche (cat. # 19035722). Alkaline Phosphatase-tagged goat anti-rabbit antibody was from Pierce (cat. # 31340).
Methods: All RAF biochemical assays were performed using an assay buffer containing 20 mM MOPS, 5 mM EGTA, 37.5 mM MgCl2, 1 mM DTT and 50 μM ATP. There was 6.25 ng/well mutant B-RAF and 7.5 ng/well MEK-1 in the final assay conditions. Compounds were serially diluted in assay buffer containing 1% DMSO and 20 μl of test compound at a concentration 3-fold more than the final concentration, and were added to a polypropylene V-well reaction plate. Vehicle control wells received buffer only with DMSO at equivalent concentrations to the test wells. […] These reaction plates were incubated at room temperature for 30 minutes. Capture of MEK-1 was initiated by transferring 50 μl of the reaction mixture to a Nunc Maxisorp™ microplate that is designed for non-specific protein capture. After 30 minute capture of MEK-1 at room temperature, this plate was washed with TBST (6×200 μL/well) to fully terminate the reaction. The plate was then blocked for 1 hour by the addition of 100 μl/well of Superblock™ in phosphate buffered saline (PBS) blocking reagent. Plate was again washed with TBST (6 times with 200 μl/well), followed by the addition of 70 μl/well of Upstate anti-phospho MEK ½ diluted 1:1000 in Pierce Superblock (PBS). After a 60 minute incubation, this plate was washed with TBST (6 times with 200 μl/well), and 70 μl of the secondary antibody (Pierce Alkaline Phosphatase tagged goat anti-rabbit) prepared at 1:4000 in Superblock, were added. After a 45 minute incubation at room temperature, the wells of the microplate were washed with TBST (6 times with 200 μl/well), and thereafter 100 μl/well of Attophos™ fluorescent alkaline phosphatase substrate was added according to the manufacturer's instructions (JBL Scientific). Fluorescence was read on a Perkin Elmer Envision multilabel reader, using the following filters: Excitation Filter: CFP430 nM, Emission Filter: Emission Filter 579 nM.

SK-MEL-28 = experiment: Cell growth inhibition assay (MTS); format: cell-based; details: Homo sapiens; SK-MEL-28, 72 hours
Procedure: (§1) Compounds of the present invention have been tested for activity against a variety of cancer cell lines. The ability of compounds to inhibit cell growth in this assay is correlated with the reduction of dehydrogenase enzyme activity found in metabolically active cells.
(§2) Materials: A large variety of cancer cells from ATCC were maintained at 37° C., 5% CO2 in DMEM media supplemented with 10% fetal bovine serum, penicillin/streptomycin and fungizone (Invitrogen). NCM460 (Incell), a normal colon epithelial cell line, and human mammary epithelial cells (Cambrex) were maintained at 37° C., 5% CO2 in DMEM and HEBM media (Cambrex), respectively.
(§3) Methods: Test compounds were dissolved and diluted to 300× in DMSO then diluted 1:40 in DMEM. Cells were seeded into 96-well tissue culture plates at 1-5×10^3 per well and cultured at 37° C. for 24 h. Cells were incubated with test compounds for 72 hours followed by incubation with tetrazolium compound (3-(4,5-dimethylthiazol-2-yl)-5-(3-carboxymethoxyphenyl)-2-(4-sulfophenyl)-2H-tetrazolium, inner salt; MTS) and the electron coupling reagent, phenazine methosulfate (PMS) for 4 hr. […] The measurement of the absorbance of the formazan was assessed using an ENVISION™ (Perkin Elmer) microplate reader at 492 nm. The calculated IC50 value is the concentration of the test compound that causes a 50% decrease in the absorbance.

DLD-1 = experiment: Cell growth inhibition assay (MTS); format: cell-based; details: Homo sapiens; DLD-1, 72 hours
Procedure: as §1, §2, §3

A375 = experiment: Cell growth inhibition assay (MTS); format: cell-based; details: Homo sapiens, A-375, 72 h, A375, 72 hours
Procedure: as §1, §2, §3

RKO = experiment: Cell growth inhibition assay (MTS); format: cell-based; details: Homo sapiens, 72 hours
Procedure: as §1, §2, §3

SK-MEL-2 = experiment: Cell growth inhibition assay (MTS); format: cell-based; details: Homo sapiens; SK-MEL-2, 72 hours
Procedure: as §1, §2, §3

WM-266-4 = experiment: Cell growth inhibition assay (MTS); format: cell-based; details: Homo sapiens; WM-266-4, 72 hours
Procedure: as §1, §2, §3

| melting point [°C] | EC50 (p-Erk (A375)) [nM] | IC50 (mutant B-RAF) [nM] | GI50 (SK-MEL-28) [nM] | GI50 (DLD-1) [nM] | GI50 (A375) [nM] | GI50 (SK-MEL-2) [nM] | SMILES | GI50 (RKO) [nM] | GI50 (WM-266-4) [nM] |
| --- | --- | --- | --- | --- | --- | --- | --- | --- | --- |
| 239 to 245 | – | – | – | – | – | – | O=P(O)(O)Oc1cccc(-c2nc3sccn3c2-c2cccc(N[C@@H]3CCCN(S(=O)(=O)c4ccc(Cl)cc4)C3)c2)c1 (as salt: phosphate) | – | – |
| – | 35 | 10 | 1120 | 15400 | 0.54 | 1800 | O=S(=O)(c1ccc(Cl)cc1)N1CCC[C@@H](Nc2nccc(-c3c(-c4cccc(O)c4)nc4occn34)n2)C1 [Compound 4, (R)-3-(5-(2-(1-(4-chlorophenylsulfonyl)piperidin-3-ylamino)pyrimidin-4-yl)imidazo[2,1-b]oxazol-6-yl)phenol] | 1810 | 15 |
| – | 82 | 8 | 88 | 5520 | < 0.4 | 519 | O=S(=O)(c1ccc(Cl)cc1)N1CCC(Nc2nccc(-c3c(-c4cccc(O)c4)nc4sccn34)n2)CC1 [Compound 7, 3-(5-(2-(1-(4-chlorophenylsulfonyl)piperidin-4-ylamino)pyrimidin-4-yl)imidazo[2,1-b]thiazol-6-yl)phenol] | 85 | 6 |
| – | 129 | 48 | 300 | 1620 | < 0.4 | 356 | O=S(=O)(c1ccc(F)cc1)N1CCC(Nc2nccc(-c3c(-c4cccc(O)c4)nc4occn34)n2)CC1 [Compound 9, 3-(5-(2-(1-(4-fluorophenylsulfonyl)piperidin-4-ylamino)pyrimidin-4-yl)imidazo[2,1-b]oxazol-6-yl)phenol] | 283 | < 0.4 |
| – | 53 | 48 | 555 | 13900 | < 0.4 | 2040 | O=S(=O)(C1CC1)N1CCC(Nc2nccc(-c3c(-c4cccc(O)c4)nc4occn34)n2)CC1 [Compound 11, 3-(5-(2-(1-(cyclopropylsulfonyl)piperidin-4-ylamino)pyrimidin-4-yl)imidazo[2,1-b]oxazol-6-yl)phenol] | 323 | 3 |
| – | 2 | 6 | 74 | 3000 | 2 | 170 | Cn1ccc(S(=O)(=O)N2CCC[C@@H](Nc3nccc(-c4c(-c5cccc(O)c5)nc5sccn45)n3)C2)n1 [Compound 14, (R)-3-(5-(2-(1-(1-methyl-1H-pyrazol-3-ylsulfonyl)piperidin-3-ylamino)pyrimidin-4-yl)imidazo[2,1-b]thiazol-6-yl)phenol] | 122 | 5 |
| – | 73 | 13 | 393 | 9470 | < 0.4 | 310 | Cn1ccc(S(=O)(=O)N2CCC(Nc3nccc(-c4c(-c5cccc(O)c5)nc5occn45)n3)CC2)n1 [Compound 20, 3-(5-(2-(1-(1-methyl-1H-pyrazol-3-ylsulfonyl)piperidin-4-ylamino)pyrimidin-4-yl)imidazo[2,1-b]oxazol-6-yl)phenol] | 372 | 2 |
| – | 34 | 0.96 | 33 | 5920 | < 0.4 | 42.8 | Cn1ccc(S(=O)(=O)N2CCC[C@@H](Nc3nccc(-c4c(-c5ccc(F)c(O)c5)nc5occn45)n3)C2)n1 [Compound 22, (R)-2-fluoro-5-(5-(2-(1-(1-methyl-1H-pyrazol-3-ylsulfonyl)piperidin-3-ylamino)pyrimidin-4-yl)imidazo[2,1-b]oxazol-6-yl)phenol] | 52 | < 0.4 |
